System: mouse pre-osteoblastic cell MC3T3-E1
Experiment: Calcium deposition amount by Calcium C Test Wako
Assay type: cell-based
Description: Other flavonoid compounds than kaempferol or hesperetin were investigated where they have the same effect or not. Flavone (commercialized by Kanto Kagaku, Tokyo, Japan), apigenin (commercialized by Funakoshi, Co., Ltd., Tokyo, Japan), flavonol (commercialized by Tokyo Kasei Kogyo, Co., Ltd., Tokyo, Japan), quercetin (commercialized by Kanto Kagaku, Tokyo, Japan), kaempferol (commercialized by Funakoshi, Co., Ltd., Tokyo, Japan), rutin (commercialized by Kanto Kagaku, Tokyo, Japan), flavanone (commercialized by Kanto Kagaku, Tokyo, Japan), naringenin (commercialized by Ardrich Corporation), hesperetin (commercialized by Funakoshi, Co., Ltd., Tokyo, Japan), hesperidin (commercialized by Kanto Kagaku, Tokyo, Japan), chalcone (commercialized by Merk Corporation), fuloretin (commercialized by Sigma Corporation), catechin (commercialized by Sigma Corporation), ipriflavone (commercialized by Daito Corporation, Toyama, Japan), taxifolin (commercialized by Funakoshi, Co., Ltd., Tokyo, Japan), sulfuretin (commercialized by Funakoshi, Co., Ltd.; Tokyo, Japan), or cyanidin (commercialized by Funakoshi, Co., Ltd., Tokyo, Japan) was selected as test samples. Alkaline phosphatase activity was measured by the method of Experiment 1. Calcium deposition was measured by usual method using “Calcium C Test Wako” (commercialized by Wako Pure Chemical Industries, Osaka, Japan), briefly, cultured cells were washed with 1 ml of Dulbecco phosphate buffer saline three times after removing the medium. To the resultant was added 0.5 ml of 2N hydrochloric acid to resolve deposited calcium. To 5 μl of the resultant solution were added 0.5 ml of 0.88M monoethanolamine buffer (pH11) and 0.05 ml of 0.63 mM o-cresolphthalein complexone solution (binding to calcium ion to form chelate complex) containing 69 mM 8-quinolinol and mixed. Calcium amount per one hole of the plate was calculated by measuring absorbance 570 nm of the resultants and standardizing with a standard calcium solution. The judgement of alkaline phosphatase activity or calcium deposition amount of each sample was to calculate the relative activity or the relative calcium deposition amount to the negative control (only medium containing 0.2% (v/v) ethanol) and to compare each other.
The enhancement of calcium deposition between kaempferol and ipripfavone were compared. Test samples and their adding manner were same as Experiment 4. Calcium deposition amount was measured by usual method using “Calcium C Test Wako” (commercialized by Wako Pure Chemical Industries, Osaka, Japan); briefly, cultured cells were washed with 1 ml of Dulbecco phosphate buffer saline three times after removing the medium. To the resultant was added 0.5 ml of 2N hydrochloric acid to resolve deposited calcium. To 5 μl of the resolving solution were added 0.5 ml of 0.88M monoethanolamine buffer (pH11) and 0.05 ml of 0.63 mM o-cresolphthalein complexone solution (binding to calcium ion to form chelate complex) containing 69 mM 8-quinolinol and mixed, Calcium amount per one hole of the plate was calculated by measuring absorbance 570 nm of the resultants and standardizing with a standard calcium solution.
Kaempferol or hesperetin in combination with ipriflavone, or a kind of isoflavones, was investigated whether to enhance calcium deposition or not. Methods for preparing samples and culturing the cells were the same method described in Experiment 1 except culturing the cells for five days, Method for measuring calcium was the same method described in Experiment 3 and 5. Final ethanol concentration of the medium containing each sample was adjusted as same concentration.

COc1ccc([C@@H]2CC(=O)c3c(O)cc(O)cc3O2)cc1O [Hesperetin]
enhancing calcium deposition in combination with ipriflavone versus single use (FIGS. 3 and 4) (5, 10 or 20 μM each, five days culture): a synergy effect was confirmed
Relative Calcium Deposition Amount (%) (flavonoid comparison, Calcium C Test Wako, relative to 0.2% (v/v) ethanol negative control): 289%

From US8778882B2, “Agent for strengthening calcium containing tissue and use thereof” (Hayashibara Co., Ltd., priority 2002, dated 2014)
